According to patent US20220395553A1, “CXCR4 ANTAGONIST PEPTIDES” (COHBAR, INC., priority 2019, published 2022):
Peptide text beside a SMILES is read from it.

What follows are compounds tested against human CXCR4 (Homo sapiens, UniProt P61073) (assay: CXCR4/CXCL12 binding, HTRF format, single concentration (Example 23)). Details: 15 nM CXCR4R fluorescent probe, 3 hours, HEK293 Tag-lite CXCR4 cells.
Parameters: host or cells: HEK293 (Tag-lite CXCR4 cells, frozen aliquots, transient expression)
Method: Peptides were initially prepared as 1 mM stock in H2O and tested at a final concentration of 400 nM. Following the manufacture's protocol, a frozen aliquot of Tag-lite CXCR4 cells was thawed and immediately seeded onto 384-well plates in TLB. Immediately following the addition of cells, 400 nM peptide (final concentration) in TLB was added to the appropriate well. Then 15 nM (final concentration; EC80) of CXCR4R fluorescent probe was added to each well to initiate the HTRF assay. The plates were covered in aluminum foil and left at room temperature for 3 hours. Following the 3 hour incubation period, the plates were removed from the incubator and fluorescence measured using a Cytation 1 plate reader using a HTRF filter cube ([…]; BioTek; Winooski, Vt.). According manufacture's instruction data reduction was performed by calculating the ratio of 665 nm signal (TRF of 665 nm excitation by 620 emission; amount of CXCR4R fluorescent probe bound to terbium labeled CXCR receptor)/620 nm signal (620 excitation by 330 nm light source; normalization factor for amount of terbium labeled CXCR4 receptor in well)×10,000.

human CXCR4, sequence (P61073 whole entry): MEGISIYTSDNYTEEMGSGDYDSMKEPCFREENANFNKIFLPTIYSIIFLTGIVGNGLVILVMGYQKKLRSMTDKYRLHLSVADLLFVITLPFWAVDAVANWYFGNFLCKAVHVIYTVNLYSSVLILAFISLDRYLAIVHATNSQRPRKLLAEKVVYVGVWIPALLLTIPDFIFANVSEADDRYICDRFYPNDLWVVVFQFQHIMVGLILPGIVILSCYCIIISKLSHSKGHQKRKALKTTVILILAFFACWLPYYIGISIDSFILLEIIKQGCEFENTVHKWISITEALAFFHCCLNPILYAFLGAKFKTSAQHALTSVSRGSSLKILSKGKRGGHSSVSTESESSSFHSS

| Compound | Percent Inhibition of CXCR4/CXCL12 Binding (400 nM peptide) |
| --- | --- |
| CC(C)C[C@H](NC(=O)[C@H](CO)NC(=O)[C@H](CO)NC(=O)[C@H](CCCNC(=N)N)NC(=O)[C@@H](NC(=O)[C@H](CO)NC(=O)[C@H](Cc1c[nH]cn1)NC(=O)[C@H](Cc1c[nH]cn1)NC(=O)[C@H](Cc1ccc(O)cc1)NC(=O)[C@H](CCCNC(=N)N)NC(=O)[C@@H](N)CCCNC(=N)N)C(C)C)C(=O)N[C@@H](CCCNC(=N)N)C(=O)N1CCC[C@H]1C(=O)N[C@@H](Cc1ccc(O)cc1)C(=O)N[C@H](C(=O)N[C@@H](CCCCN)C(=O)O)[C@@H](C)O [compound 10] (H-RRYHHSVRSSLRPYTK-OH; N-terminus and C-terminus assumed) | −8% |
| CC(C)C[C@H](NC(=O)[C@H](CO)NC(=O)[C@H](CO)NC(=O)[C@H](CCCNC(=N)N)NC(=O)[C@@H](NC(=O)[C@H](CO)NC(=O)[C@H](Cc1c[nH]cn1)NC(=O)[C@H](Cc1c[nH]cn1)NC(=O)[C@H](Cc1ccc(O)cc1)NC(=O)[C@H](CCCNC(=N)N)NC(=O)[C@H](CCC(=O)O)NC(=O)[C@@H](N)CC(C)C)C(C)C)C(=O)N[C@@H](CCCNC(=N)N)C(=O)N1CCC[C@H]1C(=O)N[C@@H](Cc1ccc(O)cc1)C(=O)O [compound 19] (H-LERYHHSVRSSLRPY-OH; N-terminus and C-terminus assumed) | 44% |
| CC(C)C[C@H](NC(=O)[C@H](CO)NC(=O)[C@H](CO)NC(=O)[C@H](CCCNC(=N)N)NC(=O)[C@@H](NC(=O)[C@H](CO)NC(=O)[C@H](Cc1c[nH]cn1)NC(=O)[C@H](Cc1c[nH]cn1)NC(=O)[C@H](Cc1ccc(O)cc1)NC(=O)[C@H](CCCNC(=N)N)NC(=O)[C@H](CCC(=O)O)NC(=O)[C@@H](N)CC(C)C)C(C)C)C(=O)N[C@@H](CCCNC(=N)N)C(=O)N1CCC[C@H]1C(=O)O [compound 20] (H-LERYHHSVRSSLRP-OH; N-terminus and C-terminus assumed) | 37% |
| CC(C)C[C@H](NC(=O)[C@H](CO)NC(=O)[C@H](CO)NC(=O)[C@H](CCCNC(=N)N)NC(=O)[C@@H](NC(=O)[C@H](CO)NC(=O)[C@H](Cc1c[nH]cn1)NC(=O)[C@H](Cc1c[nH]cn1)NC(=O)[C@H](Cc1ccc(O)cc1)NC(=O)[C@H](CCCNC(=N)N)NC(=O)[C@H](CCC(=O)O)NC(=O)[C@@H](N)CC(C)C)C(C)C)C(=O)N[C@@H](CCCNC(=N)N)C(=O)O [compound 21] (H-LERYHHSVRSSLR-OH; N-terminus and C-terminus assumed) | 20% |
| CC(C)C[C@H](N)C(=O)N[C@@H](CCC(=O)O)C(=O)N[C@@H](CCCNC(=N)N)C(=O)N[C@@H](Cc1ccc(O)cc1)C(=O)N[C@@H](Cc1c[nH]cn1)C(=O)N[C@@H](Cc1c[nH]cn1)C(=O)N[C@@H](CO)C(=O)N[C@H](C(=O)N[C@@H](CCCNC(=N)N)C(=O)N[C@@H](CO)C(=O)N[C@@H](CO)C(=O)O)C(C)C [compound 23] (H-LERYHHSVRSS-OH; N-terminus and C-terminus assumed) | 23% |
| CC(C)C[C@H](NC(=O)[C@H](CO)NC(=O)[C@H](CO)NC(=O)[C@H](CCCNC(=N)N)NC(=O)[C@@H](NC(=O)[C@H](CO)NC(=O)[C@H](Cc1c[nH]cn1)NC(=O)[C@H](Cc1c[nH]cn1)NC(=O)[C@H](Cc1ccc(O)cc1)NC(=O)[C@H](CCCNC(=N)N)NC(=O)[C@H](CCCNC(=N)N)NC(=O)[C@@H](N)CC(C)C)C(C)C)C(=O)N[C@@H](CCCNC(=N)N)C(=O)N1CCC[C@H]1C(=O)N[C@@H](Cc1ccc(O)cc1)C(=O)N[C@H](C(=O)O)[C@@H](C)O [compound 24] (H-LRRYHHSVRSSLRPYT-OH; N-terminus and C-terminus assumed) | 8% |
| CC(C)C[C@H](NC(=O)[C@H](CO)NC(=O)[C@H](CO)NC(=O)[C@H](CCCNC(=N)N)NC(=O)[C@@H](NC(=O)[C@H](CO)NC(=O)[C@H](Cc1c[nH]cn1)NC(=O)[C@H](Cc1c[nH]cn1)NC(=O)[C@H](Cc1ccc(O)cc1)NC(=O)[C@H](CCCNC(=N)N)NC(=O)[C@H](CCCNC(=N)N)NC(=O)[C@@H](N)CC(C)C)C(C)C)C(=O)N[C@@H](CCCNC(=N)N)C(=O)N1CCC[C@H]1C(=O)N[C@@H](Cc1ccc(O)cc1)C(=O)O [compound 25] (H-LRRYHHSVRSSLRPY-OH; N-terminus and C-terminus assumed) | 0% |
| CC(C)C[C@H](NC(=O)[C@H](CO)NC(=O)[C@H](CO)NC(=O)[C@H](CCCNC(=N)N)NC(=O)[C@@H](NC(=O)[C@H](CO)NC(=O)[C@H](Cc1c[nH]cn1)NC(=O)[C@H](Cc1c[nH]cn1)NC(=O)[C@H](Cc1ccc(O)cc1)NC(=O)[C@H](CCCNC(=N)N)NC(=O)[C@H](CCCNC(=N)N)NC(=O)[C@@H](N)CC(C)C)C(C)C)C(=O)N[C@@H](CCCNC(=N)N)C(=O)N1CCC[C@H]1C(=O)O [compound 26] (H-LRRYHHSVRSSLRP-OH; N-terminus and C-terminus assumed) | 1% |
| CC(C)C[C@H](NC(=O)[C@H](CO)NC(=O)[C@H](CO)NC(=O)[C@H](CCCNC(=N)N)NC(=O)[C@@H](NC(=O)[C@H](CO)NC(=O)[C@H](Cc1c[nH]cn1)NC(=O)[C@H](Cc1c[nH]cn1)NC(=O)[C@H](Cc1ccc(O)cc1)NC(=O)[C@H](CCCNC(=N)N)NC(=O)[C@H](CCCNC(=N)N)NC(=O)[C@@H](N)CC(C)C)C(C)C)C(=O)N[C@@H](CCCNC(=N)N)C(=O)O [compound 27] (H-LRRYHHSVRSSLR-OH; N-terminus and C-terminus assumed) | 10% |
| CC(C)C[C@H](N)C(=O)N[C@@H](CCCNC(=N)N)C(=O)N[C@@H](CCCNC(=N)N)C(=O)N[C@@H](Cc1ccc(O)cc1)C(=O)N[C@@H](Cc1c[nH]cn1)C(=O)N[C@@H](Cc1c[nH]cn1)C(=O)N[C@@H](CO)C(=O)N[C@H](C(=O)N[C@@H](CCCNC(=N)N)C(=O)N[C@@H](CO)C(=O)N[C@@H](CO)C(=O)O)C(C)C [compound 29] (H-LRRYHHSVRSS-OH; N-terminus and C-terminus assumed) | 14% |
| CC(C)C[C@H](NC(=O)[C@H](CO)NC(=O)[C@H](CO)NC(=O)[C@H](CCCNC(=N)N)NC(=O)[C@@H](NC(=O)[C@H](CO)NC(=O)[C@H](Cc1c[nH]cn1)NC(=O)[C@H](CC(N)=O)NC(=O)[C@H](Cc1ccc(O)cc1)NC(=O)[C@H](CCCNC(=N)N)NC(=O)[C@H](CCC(=O)O)NC(=O)[C@@H](N)CC(C)C)C(C)C)C(=O)N[C@@H](CCCNC(=N)N)C(=O)N1CCC[C@H]1C(=O)N[C@@H](Cc1ccc(O)cc1)C(=O)N[C@H](C(=O)N[C@@H](CCCCN)C(=O)O)[C@@H](C)O [compound 42] (H-LERYNHSVRSSLRPYTK-OH; N-terminus and C-terminus assumed) | 32% |
| CC(C)C[C@H](NC(=O)[C@H](CO)NC(=O)[C@H](CO)NC(=O)[C@H](CCCNC(=N)N)NC(=O)[C@@H](NC(=O)[C@H](CO)NC(=O)[C@H](CC(N)=O)NC(=O)[C@H](Cc1c[nH]cn1)NC(=O)[C@H](Cc1ccc(O)cc1)NC(=O)[C@H](CCCNC(=N)N)NC(=O)[C@H](CCCNC(=N)N)NC(=O)[C@@H](N)CC(C)C)C(C)C)C(=O)N[C@@H](CCCNC(=N)N)C(=O)N1CCC[C@H]1C(=O)N[C@@H](Cc1ccc(O)cc1)C(=O)N[C@H](C(=O)N[C@@H](CCCCN)C(=O)O)[C@@H](C)O [compound 44] (H-LRRYHNSVRSSLRPYTK-OH; N-terminus and C-terminus assumed) | 0% |
